Data on 1 molecule can be found in US20030215498A1, “Rapidly disintegrating comressed tablets comprising biologically active compounds” (priority 2002, published 2003).

The series can be described thus: Dissolution testing of acetaminophen particles (USP XXIII, Apparatus 2, paddle). Format: physicochemical. The conditions noted are these: 900 ml water, 37° C., USP Apparatus 2, paddle 50 rpm, amount equivalent to 500 mg acetaminophen, n = 6. Here is the method: Dissolution testing of the acetaminophen particles was carried out using USP XXIII “Acetaminophen capsules” and “Dissolution '711”, which are incorporated herein by reference. The method was adapted to use a relevant quantity of powder, i.e. an amount equivalent to 500 mg of acetaminophen in the dissolution bowl. This quantity represents a standard amount of […] in marketed U.S.A. over-the-counter (OTC) products. The operating conditions included 900 ml of water at 37° C. in a USP Apparatus 2 with paddle speed set at 50 rpm. FIG. 1 presents the dissolution-curves of acetaminophen and 4.6% lipid-based coated acetaminophen, i.e. 4.6% coating and 95.4% acetaminophen.

For the molecule `CC(=O)Nc1ccc(O)cc1` [100% Acetaminophen, Acetaminophen], the Dissolution % by setting is: (5 min) 66.3%; (10 min) 90.8%; (15 min) 95.7%; (20 min) 97.1%; (30 min) 97.5%; (45 min) 97.7%. Moreover, for the setting “60 min”, the Dissolution % is 97.7%.
